Test results: ChEMBL document CHEMBL1126361, “A mechanism-based inactivator of E. coli -hydroxydecanoyl thiolester dehydrase designed to crosslink active site amino acids” (Bioorg Med Chem Lett, 1992)

These compounds were tested on Escherichia coli (assay: Evaluation of Beta decanoyl thioester dehydrase inactivation for the compound was determined as percent enzyme activity remaining).
Set-up: concentration or dose not given beside the values

| Compound | Activity [%] |
| --- | --- |
| CCCCCCCCCC(=O)CBr | 89 |
| CCCCCC/C=C/CC(=O)CCl | 100 |
| CCCCCCCCCC(=O)CCl | 99 |
| CCCCCC/C=C/CC(=O)C=[N+]=[N-] | 100 |
| CCCCCCC#CCC(=O)C=[N+]=[N-] | 0 |
| CCCCCCCCCC(=O)C=[N+]=[N-] | 97 |
| CCCCCCC#CCC(=O)CCl | 0 |
| CCCCCCC=C=CC(=O)C=[N+]=[N-] | 0 |
